What follows are molecules tested against SARS-CoV-2 main protease (M^pro) (Severe acute respiratory syndrome coronavirus 2, UniProt P0DTD1) (assay: Rapid-Fire MS Biochemical Assay measuring Mpro activity (5 nM Mpro)). Conditions: Table 1B, Mpro inhibition, 5 μM substrate peptide, 120 min, read-out: Rapid-Fire Assay IC50.
With N#C[C@@H]1CN(c2ccc(OC(F)F)cc2F)C(=O)N1c1cncc2ccccc12 (single isomer, unassigned) [Compound 83b] the IC50 was > 1000 nM.
CC(C)(O)c1ccc(N2C[C@H](C#N)N(c3cncc4ccccc34)C2=O)cc1 (single isomer, unassigned) [Compound 84a] was tested, and the IC50 was 20 to 200 nM.
CC(C)(O)c1ccc(N2C[C@@H](C#N)N(c3cncc4ccccc34)C2=O)cc1 (single isomer, unassigned) [Compound 84b] was tested, and the IC50 was > 1000 nM.
For CS(=O)(=O)c1ccc2cncc(N3C(=O)N(c4ccc(F)c(F)c4)C[C@@H]3C#N)c2c1 (single isomer, unassigned) [Compound 85a], the IC50 was < 20 nM.
For CS(=O)(=O)c1ccc2cncc(N3C(=O)N(c4ccc(F)c(F)c4)C[C@H]3C#N)c2c1 (single isomer, unassigned) [Compound 85b], the IC50 was > 1000 nM.
In the case of CS(=O)(=O)c1ccc2cncc(N3C(=O)N(c4cc(F)cc(F)c4)C[C@@H]3C#N)c2c1 (single isomer, unassigned) [Compound 86a], the IC50 is reported as 20 to 200 nM.
For CS(=O)(=O)c1ccc2cncc(N3C(=O)N(c4cc(F)cc(F)c4)C[C@H]3C#N)c2c1 (single isomer, unassigned) [Compound 86b], the IC50 was > 1000 nM.
In the case of N#C[C@H]1CN(c2ccc(F)c(Cl)c2)C(=O)N1c1cncc2ccccc12 (single isomer, unassigned) [Compound 87a], the IC50 is reported as < 20 nM.
For N#C[C@@H]1CN(c2ccc(F)c(Cl)c2)C(=O)N1c1cncc2ccccc12 (single isomer, unassigned) [Compound 87b], the IC50 was > 1000 nM.
In the case of Cc1ncc(C(F)(F)F)cc1N1C[C@H](C#N)N(c2cncc3ccccc23)C1=O (single isomer, unassigned) [Compound 88a], the IC50 is reported as < 20 nM.
Cc1ncc(C(F)(F)F)cc1N1C[C@@H](C#N)N(c2cncc3ccccc23)C1=O (single isomer, unassigned) [Compound 88b] was tested, and the IC50 was > 1000 nM.
N#C[C@H]1CN(c2cccc(OC(F)F)c2)C(=O)N1c1cncc2ccccc12 (single isomer, unassigned) [Compound 89a] was tested, and the IC50 was < 20 nM.
With N#C[C@@H]1CN(c2cccc(OC(F)F)c2)C(=O)N1c1cncc2ccccc12 (single isomer, unassigned) [Compound 89b] the IC50 was > 1000 nM.
In the case of N#Cc1ccc(C(F)(F)F)cc1N1C[C@H](C#N)N(c2cncc3ccccc23)C1=O (single isomer, unassigned) [Compound 90a], the IC50 is reported as < 20 nM.
For N#Cc1ccc(C(F)(F)F)cc1N1C[C@@H](C#N)N(c2cncc3ccccc23)C1=O (single isomer, unassigned) [Compound 90b], the IC50 was > 1000 nM.
For N#C[C@H]1CN(c2ccc(OC(F)(F)F)cc2)C(=O)N1c1cncc2ccccc12 (single isomer, unassigned) [Compound 91a], the IC50 was < 20 nM.
For N#C[C@@H]1CN(c2ccc(OC(F)(F)F)cc2)C(=O)N1c1cncc2ccccc12 (single isomer, unassigned) [Compound 91b], the IC50 was > 1000 nM.
With N#C[C@H]1CN(c2cccc(OC(F)(F)F)c2)C(=O)N1c1cncc2ccccc12 (single isomer, unassigned) [Compound 92a] the IC50 was < 20 nM.
N#C[C@@H]1CN(c2cccc(OC(F)(F)F)c2)C(=O)N1c1cncc2ccccc12 (single isomer, unassigned) [Compound 92b] gave an IC50 of 200 to 1000 nM.
For N#C[C@H]1CN(c2cnc(C(F)(F)F)nc2)C(=O)N1c1cncc2ccccc12 (single isomer, unassigned) [Compound 93a], the IC50 was < 20 nM.
N#C[C@@H]1CN(c2cnc(C(F)(F)F)nc2)C(=O)N1c1cncc2ccccc12 (single isomer, unassigned) [Compound 93b] was tested, and the IC50 was > 1000 nM.
CC(C)c1ccc(N2C[C@H](C#N)N(c3cncc4ccccc34)C2=O)cn1 (single isomer, unassigned) [Compound 94a] was tested, and the IC50 was < 20 nM.
For CC(C)c1ccc(N2C[C@@H](C#N)N(c3cncc4ccccc34)C2=O)cn1 (single isomer, unassigned) [Compound 94b], the IC50 was > 1000 nM.
COc1nc(C(F)(F)F)ccc1N1C[C@H](C#N)N(c2cncc3ccccc23)C1=O (single isomer, unassigned) [Compound 95a] was tested, and the IC50 was < 20 nM.
With COc1nc(C(F)(F)F)ccc1N1C[C@@H](C#N)N(c2cncc3ccccc23)C1=O (single isomer, unassigned) [Compound 95b] the IC50 was > 1000 nM.
Molecule Cn1c(C(F)(F)F)ccc(N2C[C@H](C#N)N(c3cncc4ccccc34)C2=O)c1=O (single isomer, unassigned) [Compound 96a] has an IC50 of 20 to 200 nM.
For Cn1c(C(F)(F)F)ccc(N2C[C@@H](C#N)N(c3cncc4ccccc34)C2=O)c1=O (single isomer, unassigned) [Compound 96b], the IC50 was > 1000 nM.
N#C[C@H]1CN(c2ccc(C(F)(F)F)cn2)C(=O)N1c1cncc2ccccc12 (single isomer, unassigned) [Compound 97a] was tested, and the IC50 was < 20 nM.
For N#C[C@@H]1CN(c2ccc(C(F)(F)F)cn2)C(=O)N1c1cncc2ccccc12 (single isomer, unassigned) [Compound 97b], the IC50 was > 1000 nM.
With Cc1cc(N2C[C@H](C#N)N(c3cncc4ccccc34)C2=O)cnc1C (single isomer, unassigned) [Compound 98a] the IC50 was < 20 nM.
In the case of Cc1cc(N2C[C@@H](C#N)N(c3cncc4ccccc34)C2=O)cnc1C (single isomer, unassigned) [Compound 98b], the IC50 is reported as > 1000 nM.
N#C[C@H]1CN(c2ccc(C(F)(F)F)cc2)C(=O)N1c1cncc2ccccc12 (single isomer, unassigned) [Compound 99a] was tested, and the IC50 was < 20 nM.
Molecule N#C[C@@H]1CN(c2ccc(C(F)(F)F)cc2)C(=O)N1c1cncc2ccccc12 (single isomer, unassigned) [Compound 99b] has an IC50 of 200 to 1000 nM.
With COc1ncc(C(F)(F)F)cc1N1C[C@H](C#N)N(c2cncc3ccccc23)C1=O (single isomer, unassigned) [Compound 100a] the IC50 was < 20 nM.
COc1ncc(C(F)(F)F)cc1N1C[C@@H](C#N)N(c2cncc3ccccc23)C1=O (single isomer, unassigned) [Compound 100b] gave an IC50 of 200 to 1000 nM.
Cc1ccc(OC(F)F)cc1N1C[C@H](C#N)N(c2cncc3ccccc23)C1=O (single isomer, unassigned) [Compound 101a] was tested, and the IC50 was < 20 nM.
Cc1ccc(OC(F)F)cc1N1C[C@@H](C#N)N(c2cncc3ccccc23)C1=O (single isomer, unassigned) [Compound 101b] was tested, and the IC50 was > 1000 nM.
For Cc1cc(N2C[C@H](C#N)N(c3cncc4ccccc34)C2=O)cc(C)n1 (single isomer, unassigned) [Compound 102a], the IC50 was < 20 nM.
In the case of Cc1cc(N2C[C@@H](C#N)N(c3cncc4ccccc34)C2=O)cc(C)n1 (single isomer, unassigned) [Compound 102b], the IC50 is reported as 200 to 1000 nM.
For COc1cc(Cl)ccc1N1C[C@H](C#N)N(c2cncc3ccccc23)C1=O (single isomer, unassigned) [Compound 103a], the IC50 was < 20 nM.
COc1cc(Cl)ccc1N1C[C@@H](C#N)N(c2cncc3ccccc23)C1=O (single isomer, unassigned) [Compound 103b] was tested, and the IC50 was > 1000 nM.
For N#C[C@H]1CN(c2cncc(C(F)(F)F)c2)C(=O)N1c1cncc2ccccc12 (single isomer, unassigned) [Compound 104a], the IC50 was < 20 nM.
With N#C[C@@H]1CN(c2cncc(C(F)(F)F)c2)C(=O)N1c1cncc2ccccc12 (single isomer, unassigned) [Compound 104b] the IC50 was > 1000 nM.
With COc1ccc(F)cc1N1C[C@H](C#N)N(c2cncc3ccccc23)C1=O (single isomer, unassigned) [Compound 105a] the IC50 was < 20 nM.
With COc1ccc(F)cc1N1C[C@@H](C#N)N(c2cncc3ccccc23)C1=O (single isomer, unassigned) [Compound 105b] the IC50 was > 1000 nM.
In the case of N#C[C@H]1CN(c2cccc(C(F)(F)F)c2)C(=O)N1c1cncc2ccccc12 (single isomer, unassigned) [Compound 106a], the IC50 is reported as < 20 nM.
For COc1cc(C(F)(F)F)ncc1N1C[C@H](C#N)N(c2cncc3ccccc23)C1=O (single isomer, unassigned) [Compound 107a], the IC50 was 20 to 200 nM.
In the case of COc1cc(C(F)(F)F)ncc1N1C[C@@H](C#N)N(c2cncc3ccccc23)C1=O (single isomer, unassigned) [Compound 107b], the IC50 is reported as > 1000 nM.
In the case of N#C[C@H]1CN(c2ccc(C(F)F)cc2)C(=O)N1c1cncc2ccccc12 (single isomer, unassigned) [Compound 108a], the IC50 is reported as < 20 nM.
In the case of N#C[C@@H]1CN(c2ccc(C(F)F)cc2)C(=O)N1c1cncc2ccccc12 (single isomer, unassigned) [Compound 108b], the IC50 is reported as > 1000 nM.
With N#C[C@H]1CN(c2cc(F)ccc2F)C(=O)N1c1cncc2ccccc12 (single isomer, unassigned) [Compound 109a] the IC50 was < 20 nM.
N#C[C@@H]1CN(c2cc(F)ccc2F)C(=O)N1c1cncc2ccccc12 (single isomer, unassigned) [Compound 109b] was tested, and the IC50 was > 1000 nM.
With N#C[C@H]1CN(c2cc(F)cc(F)c2)C(=O)N1c1cncc2ccccc12 (single isomer, unassigned) [Compound 110a] the IC50 was < 20 nM.
N#C[C@@H]1CN(c2cc(F)cc(F)c2)C(=O)N1c1cncc2ccccc12 (single isomer, unassigned) [Compound 110b] showed an IC50 of 200 to 1000 nM.
For N#C[C@H]1CN(c2cccc(Cl)n2)C(=O)N1c1cncc2ccccc12 (single isomer, unassigned) [Compound 111a], the IC50 was < 20 nM.
Work on N#C[C@@H]1CN(c2cccc(Cl)n2)C(=O)N1c1cncc2ccccc12 (single isomer, unassigned) [Compound 111b] yielded an IC50 of 200 to 1000 nM.
COc1ccc(N2C[C@H](C#N)N(c3cncc4ccccc34)C2=O)cn1 (single isomer, unassigned) [Compound 112a] was tested, and the IC50 was < 20 nM.
COc1ccc(N2C[C@@H](C#N)N(c3cncc4ccccc34)C2=O)cn1 (single isomer, unassigned) [Compound 112b] was tested, and the IC50 was > 1000 nM.
Cc1ccc(Cl)cc1N1C[C@H](C#N)N(c2cncc3ccccc23)C1=O (single isomer, unassigned) [Compound 114a] was tested, and the IC50 was < 20 nM.
In the case of Cc1ccc(Cl)cc1N1C[C@@H](C#N)N(c2cncc3ccccc23)C1=O (single isomer, unassigned) [Compound 114b], the IC50 is reported as > 1000 nM.

Reference: patent US20250092016A1, “COMPOUNDS AND COMPOSITIONS FOR THE TREATMENT OF CORONAVIRAL RELATED DISEASES” (priority 2021, published 2025)
